Reference: patent publication US11667602B2, “Compounds and their use” (AstraZeneca AB, priority 2020, dated 2023)

Target: T1, human RXFP1 (Homo sapiens, UniProt Q9HBX9)
T1 sequence (Q9HBX9 1-757): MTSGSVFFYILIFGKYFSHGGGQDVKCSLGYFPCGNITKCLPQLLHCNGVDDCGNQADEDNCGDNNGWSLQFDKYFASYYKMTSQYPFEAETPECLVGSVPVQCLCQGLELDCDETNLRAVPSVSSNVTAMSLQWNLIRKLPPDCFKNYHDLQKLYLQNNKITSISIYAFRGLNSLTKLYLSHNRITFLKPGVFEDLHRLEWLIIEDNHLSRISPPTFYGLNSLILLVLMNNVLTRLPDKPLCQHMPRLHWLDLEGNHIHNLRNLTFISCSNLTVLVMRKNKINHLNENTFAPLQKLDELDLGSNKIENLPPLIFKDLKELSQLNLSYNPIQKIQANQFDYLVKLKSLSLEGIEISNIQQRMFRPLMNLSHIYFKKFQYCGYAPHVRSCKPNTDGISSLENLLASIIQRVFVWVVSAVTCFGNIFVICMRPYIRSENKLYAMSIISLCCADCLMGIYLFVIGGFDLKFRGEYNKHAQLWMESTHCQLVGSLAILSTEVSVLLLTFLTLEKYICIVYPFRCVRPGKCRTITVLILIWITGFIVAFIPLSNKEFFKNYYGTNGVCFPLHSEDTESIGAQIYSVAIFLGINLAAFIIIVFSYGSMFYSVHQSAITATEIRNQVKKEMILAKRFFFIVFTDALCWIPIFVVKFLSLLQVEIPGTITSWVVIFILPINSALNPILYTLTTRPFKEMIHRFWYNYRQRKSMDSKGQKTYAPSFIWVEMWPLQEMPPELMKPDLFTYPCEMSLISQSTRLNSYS
Test: RXFP1 Hu cAMP (Test A)
Type: cell-based
Set-up: expressed in transfected cells; host or cells: Jump-In T-REx CHO-K1 cells (ThermoFisher), induced with 10 ng/ml doxycycline for 24 h
Conditions: RXFP1 Hu cAMP; for EC50: read-out: Test A EC50
Summary of the method: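 Doxycycline-induced (10 ng/ml, 24 h) CHO-K1 cells stably expressing human RXFP1; cAMP read by competitive HTRF after 2 h at room temperature, with 0.5 mM IBMX final.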

SMILES	Test A Sinf [%]	EC50 [µM]
COc1cc(F)c(OCc2cccc(CC(=O)O)c2)cc1C(=O)N[C@H]1[C@@H](C(=O)Nc2cccc(S(=O)(=O)C(F)(F)F)c2)[C@@H]2C=C[C@H]1C2 (racemic) [Example 453]	155	2
COc1cc(F)c(OCc2cccc(C(C)(C)C(=O)O)c2)cc1C(=O)N[C@H]1[C@@H](C(=O)Nc2cccc(S(=O)(=O)C(F)(F)F)c2)[C@@H]2C=C[C@H]1C2 (racemic) [Example 454]	76	
COc1cc(F)c(OCCCCCC(=O)O)cc1C(=O)N[C@H]1[C@@H](C(=O)Nc2cccc(S(=O)(=O)C(F)(F)F)c2)[C@@H]2C=C[C@H]1C2 (racemic) [Example 455]	91	0.16
COc1cc(F)c(OCCCC(=O)O)cc1C(=O)N[C@H]1[C@@H](C(=O)Nc2cccc(S(=O)(=O)C(F)(F)F)c2)[C@@H]2C=C[C@H]1C2 (racemic) [Example 456]	129	
COc1cc(F)c(OC2CCC(C(=O)O)CC2)cc1C(=O)N[C@H]1[C@@H](C(=O)Nc2cccc(S(=O)(=O)C(F)(F)F)c2)[C@@H]2C=C[C@H]1C2 (mixture of isomers) [Example 457]	56	
COc1cc(C#N)c(O[C@H]2CC[C@@](C)(C(=O)O)CC2)cc1C(=O)N[C@@H]1C2CCC(CC2)[C@@H]1C(=O)NCC1(C)CCC1 (racemic) [Example 468, (1R,4s)-4-(2-Cyano-4-methoxy-5-(((2SR,3RS)-3-(((1-methylcyclobutyl)methyl)carbamoyl)bicyclo[2.2.2]octan-2-yl)carbamoyl)phenoxy)-1-methylcyclohexane-1-carboxylic acid]	93	0.0041
COc1cc(C#N)c(O[C@H]2CC[C@@](C)(C(=O)O)CC2)cc1C(=O)N[C@H]1[C@@H](C(=O)NCC2(C)CCC2)[C@H]2C=C[C@@H]1CC2 (racemic) [Example 469, (1R,4s)-4-(2-Cyano-4-methoxy-5-(((1RS,2SR,3RS,4SR)-3-(((1-methylcyclobutyl)methyl)carbamoyl)bicyclo[2.2.2]oct-5-en-2-yl)carbamoyl)phenoxy)-1-methylcyclohexane-1-carboxylic acid]	99	0.036
COc1cc(F)c(O[C@H]2CC[C@@](C)(C(=O)O)CC2)cc1C(=O)N[C@H]1[C@H]2CC[C@H](CC2)[C@H]1C(=O)NCC1(C)CCC1 (racemic) [Example 470, (1R,4s)-4-(2-Fluoro-4-methoxy-5-(((2SR,3RS)-3-(((1-methylcyclobutyl)methyl)carbamoyl)bicyclo[2.2.2]octan-2-yl)carbamoyl)phenoxy)-1-methylcyclohexane-1-carboxylic acid]	102	0.017
COc1cc(F)c(O[C@H]2CC[C@@](C)(C(=O)O)CC2)cc1C(=O)N[C@H]1[C@@H](C(=O)NCC2(C)CCC2)[C@H]2C=C[C@@H]1CC2 (racemic) [Example 471, (1R,4s)-4-(2-Fluoro-4-methoxy-5-(((1RS,2SR,3RS,4SR)-3-(((1-methylcyclobutyl)methyl)carbamoyl)bicyclo[2.2.2]oct-5-en-2-yl)carbamoyl)phenoxy)-1-methylcyclohexane-1-carboxylic acid]	95	0.091
COc1cc(F)c(O[C@H]2CC[C@@](C)(C(=O)O)CC2)cc1C(=O)N[C@@H]1CCN(C(C)=O)C[C@@H]1C(=O)Nc1cccc(S(=O)(=O)C(F)(F)F)c1 (racemic) [Example 487, (1R,4s)-4-(5-(((3RS,4SR)-1-Acetyl-3-((3-((trifluoromethyl)sulfonyl)phenyl)carbamoyl)piperidin-4-yl)carbamoyl)-2-fluoro-4-methoxyphenoxy)-1-methylcyclohexane-1-carboxylic acid]		> 40
COc1cc(F)c(O[C@H]2CC[C@@H](C(=O)O)CC2)cc1C(=O)N[C@H]1[C@@H](C(=O)Nc2cccc(S(=O)(=O)C(F)(F)F)c2)[C@@H]2C=C[C@H]1C2 (racemic) [Example 495]	98	0.12
COc1cc(F)c(O[C@H]2CC[C@@H](C(=O)OC)CC2)cc1C(=O)N[C@@H]1C[C@H](O)C[C@@H]1C(=O)Nc1cccc(S(=O)(=O)C(F)(F)F)c1 (racemic) [Example 496]		> 40
COc1cc(F)c(O[C@H]2CC[C@@](C)(C(=O)O)CC2)cc1C(=O)N[C@@H]1[C@H]2CC[C@H](C2)[C@@H]1C(=O)NC1CCCC1(C)C (relative stereo) [Example 503, (1S,4s)-4-(5-(((1S,2R,3S,4R)-3-(((R*)-2,2-Dimethylcyclopentyl)carbamoyl)bicyclo[2.2.1]heptan-2-yl)carbamoyl)-2-fluoro-4-methoxyphenoxy)-1-methylcyclohexane-1-carboxylic acid]	102	0.06
COc1cc(F)c(O[C@H]2CC[C@@](C)(C(=O)O)CC2)cc1C(=O)N[C@@H]1[C@H]2CC[C@H](C2)[C@@H]1C(=O)N[C@H]1CCCC1(C)C (relative stereo) [Example 504, (1S,4s)-4-(5-(((1S,2R,3S,4R)-3-(((R*)-2,2-Dimethylcyclopentyl)carbamoyl)bicyclo[2.2.1]heptan-2-yl)carbamoyl)-2-fluoro-4-methoxyphenoxy)-1-methylcyclohexane-1-carboxylic acid]	91	0.6
COc1cc(F)c(OC2CCC(CO)(C(=O)O)CC2)cc1C(=O)N[C@H]1[C@@H](C(=O)NCC2(C)CCC2)[C@H]2CC[C@@H]1O2 (relative stereo) [Example 533, (1R,4s)-4-(2-Fluoro-4-methoxy-5-(((1S*,2S*,3R*,4R*)-3-(((1-methylcyclobutyl)methyl)carbamoyl)-7-oxabicyclo[2.2.1]heptan-2-yl)carbamoyl)phenoxy)-1-(hydroxymethyl)cyclohexane-1-carboxylic acid]		> 40
COc1cc(F)c(OC2CCC(CO)(C(=O)O)CC2)cc1C(=O)N[C@H]1C[C@H](OC)C[C@H]1C(=O)NCC(C)(C)C (relative stereo) [Example 549, (1R,4s)-4-(2-Fluoro-4-methoxy-5-(((1S*,2R*,4R*)-4-methoxy-2-(neopentylcarbamoyl)cyclopentyl)carbamoyl)phenoxy)-1-(hydroxymethyl)cyclohexane-1-carboxylic acid]	94	1.3
COc1cc(F)c(OC2CCC(O)(C(=O)O)CC2)cc1C(=O)N[C@@H]1[C@@H]2CC[C@@H](C2)[C@@H]1C(=O)Nc1cccc(S(=O)(=O)C(F)(F)F)c1 (relative stereo) [Example 583, (1R,4r)-4-(2-Fluoro-4-methoxy-5-(((1R*,2R*,3S*,4S*)-3-((3-((trifluoromethyl)sulfonyl)phenyl)carbamoyl)bicyclo[2.2.1]heptan-2-yl)carbamoyl)phenoxy)-1-hydroxycyclohexane-1-carboxylic acid]	84	0.35
COc1cc(F)c(OC2CCC(CO)(C(=O)O)CC2)cc1C(=O)N[C@H]1[C@H]2CC[C@H](C2)[C@H]1C(=O)Nc1cccc(S(=O)(=O)C(F)(F)F)c1 (relative stereo) [Example 585, (1R,4s)-4-(2-Fluoro-4-methoxy-5-(((1S*,2S*,3R*,4R*)-3-((3-((trifluoromethyl)sulfonyl)phenyl)carbamoyl)bicyclo[2.2.1]heptan-2-yl)carbamoyl)phenoxy)-1-(hydroxymethyl)cyclohexane-1-carboxylic acid]	93	0.24
COc1cc(F)c(-c2ccc([C@@H]3C[C@H]3C(=O)O)nc2)cc1C(=O)N[C@@H]1[C@H]2CC[C@H](C2)[C@@H]1C(=O)Nc1cccc(S(=O)(=O)C(F)(F)F)c1 (single isomer, unassigned) [Example 262, (1R*,2R*)-2-(5-(2-Fluoro-4-methoxy-5-(((1S,2R,3S,4R)-3-((3-((trifluoromethyl)sulfonyl)phenyl)carbamoyl)bicyclo[2.2.1]heptan-2-yl)carbamoyl)phenyl)pyridin-2-yl)cyclopropane-1-carboxylic acid]	95	0.026
COc1cc(F)c(-c2cnc([C@@H]3C[C@H]3C(=O)O)cn2)cc1C(=O)N[C@@H]1[C@H]2CC[C@H](C2)[C@@H]1C(=O)Nc1cccc(S(=O)(=O)C(F)(F)F)c1 (single isomer, unassigned) [Example 263, (1R*,2R*)-2-(5-(2-Fluoro-4-methoxy-5-(((1S,2R,3S,4R)-3-((3-((trifluoromethyl)sulfonyl)phenyl)carbamoyl)bicyclo[2.2.1]heptan-2-yl)carbamoyl)phenyl)pyrazin-2-yl)cyclopropane-1-carboxylic acid]	106	0.084
